According to US20190231745A1, “INHIBITORS OF T CELL RECEPTOR AND USES THEREOF” (Consejo Superior De Investigaciones Cientificas, priority 2017, published 2019):
Where a name gives a salt, the structure may show the parent alone.

What was measured:
[1] = test system: B8R-reactive CD8 T cells in immunized mice; details: 10 or 40 mg/kg daily, 7 days
[2] = test system: human peripheral blood T cells stimulated with anti-CD3; experiment: Human blood T cell proliferation induced by anti-CD3 (CFSE dilution); assay type: cell-based
[3] = test system: murine naïve spleen B cells; experiment: B cell proliferation (CellTrace Violet); assay type: cell-based, mouse
Method: (§1) FIG. 2. Target specificity of AX-024. […] The experiment was repeated three times. […] RUs, response units.
Proliferation was calculated according to the total number of cell divisions (by Cell-Trace Violet dilution).

[4] = molecular target: CD3ε PRS peptide binding to immobilized SH3.1(Nck1) domain (Homo sapiens, UniProt P16333); experiment: Surface plasmon resonance; details: SPR, maximum steady-state response units; read-out: IC50 for the inhibition of CD3ε peptide binding
Method: as §1
HBS-EP was used as the running buffer (10 mM HEPES [pH 7.4], 150 mM NaCl, 3 mM EDTA, 0.005% [v/v] Surfactant P20). Immobilization of the GST-Nck1(SH3.1) purified recombinant protein (final concentration 30 μg/ml) was performed by the amino coupling strategy using sodium acetate (10 mM) at pH 4.5 and 150 μL of a solution of EDC/NHS (v/v), with optimum immobilization achieved at approximately 5000 resonance units. For interaction experiments, increasing concentrations of the CD3ε peptide […] and AX-024 were used on the same chip. In all cases, the flow rate was […]. After each interaction, 2.5 M glycine (pH 2) was used to regenerate the surface, and the analyte response after regeneration was constant after repeated injections in all the experiments and within ±10% of the response following the first injection.

[5] = test system: Nck recruitment to the TCR; experiment: Co-immunoprecipitation of endogenous Nck with the TCR; assay type: cell-based; details: human blood T cells stimulated with anti-CD3
Method: as §1
For co-immunoprecipitation analysis of endogenous Nck, a total of […] enriched human blood T-cells were pre-incubated in serum-free RPMI medium with compound AX-024 before stimulation with soluble OKT3 (10 μg/ml) for 1 minute at 37° C. Cells were lysed as above, and immunoprecipitation was performed with OKT3 and protein A Sepharose beads. The resulting immunoprecipitated extracts were resolved in a 10% acrylamide SDS-PAGE gel for immunoblotting with a rabbit anti-Nck antibody and reprobed with anti-CD3ζ serum.

[6] = test system: intracellular F-actin in human blood T cells; experiment: TCR-triggered actin polymerization (phalloidin staining); assay type: cell-based; details: T-cell, read-out: IC50 of inhibition of the anti-CD3 elicited increase of intracellular F-actin
[7] = test system: purified human blood T cells stimulated with anti-CD3; experiment: Microarray analysis of gene expression; assay type: cell-based; details: 1 nM, anti-CD3 4 hours, two donors
Method: RNA was extracted using the RNAeasy kit according to the manufacturer's instructions (QIAGEN 74134) and its integrity was assessed using an Agilent 2100 Bioanalyzer (Agilent). Labelling and hybridization were performed according to the protocols from Affymetrix. Briefly, 100 ng of total RNA were amplified and labelled using the WT Plus reagent kit (Affymetrix) and then hybridized to Human Gene 2.0 ST Array (Affymetrix). Washing and scanning were performed using the Affymetrix GeneChip System (GeneChip Hybridization Oven 645, GeneChip Fluidics Station 450 and GeneChip Scanner 7G).

CD-1 mice = experiment: Acute toxicity, single intraperitoneal injection; assay type: in vivo, mouse; details: single intraperitoneal injection 2.8, 14, 70, 350 mg/kg
From the text: (§2) FIG. S7. Toxicity of AX-024 in mice and rats. (A) Effect of distinct single doses of AX024. HCl administered intraperitoneally on body weight gain of CD-1 mice over 14 days. The data represent the mean±s.e.m. (n=10 per group). (B) Effect of distinct single doses of AX024. HCl administered orally on body weight gain of Swiss albino mice over 14 days. The data represent the mean±s.e.m. (n=2 per group). (C) Effect of distinct single doses of AX-024. HCl administered per orally on body weight gain of Sprague Dawley rats over 14 days. The data represent the mean±s.e.m. (n=2 per group). (D) Summary of acute toxicological findings in different species and calculation of the human equivalent dose.
Acute toxicity: Eight-week-old CD-1 mice were injected intraperitoneally with different amounts of the hydrochloride salt of AX-024 (AX-024.HCl) dissolved in 0.5 ml of saline. All animals were observed clinically for the appearance of macroscopically visible adverse reactions twice daily over 14 days, as well as immediately after AX-024 administration. A necropsy was carried out on each animal on day 14, and the abdominal, thoracic, and cranial cavities were examined in situ, together with their associated organs.

Swiss albino mice = experiment: Toxicity after single oral dose, mice; assay type: in vivo, mouse
From the text: as §2

Sprague Dawley rats = experiment: Toxicity after single oral dose, rats; assay type: in vivo
From the text: as §2

[8] = test system: thymocytes of 4 week-old C57BL/6 mice; experiment: Thymocyte differentiation in vivo; design: species or system mouse; details: administration for 10 days to 4-week-old mice
Method: FIG. S8. Effect of AX-024 on thymocyte differentiation. (A) Flow cytometry analysis of CD24 and TCR expression in thymocytes of 4 week-old C57BL/6 mice exposed to daily doses of oral AX-024 (10 mg/Kg and 40 mg/Kg) or to vehicle alone for 10 consecutive days. Both markers allowed the thymocytes to be divided into five subpopulations (a to e) that were reanalyzed according to CD4 and CD8 expression (right). The data below indicates the percentages of double negative (DN, CD4^− CD8^−), double positive (DP, CD4^+ CD8^+) and single positive (CDSP, CD4^+ CD8^−; CD8SP. CD4^− CD8^+) thymocytes within each a-to-e subpopulation. The data represent the mean±s.e.m. (n=6 mice per group). (B) Absolute cell number in the major thymic DN, DP, CD4SP, CD8SP subpopulations of mice analyzed in A. Numbers of pre- and post-beta selection (DN3 and DN4) and γδT cells are also indicated

[9] = test system: EAE in MOG-immunized mice; experiment: EAE model, therapeutic treatment; assay type: in vivo, mouse; details: oral, therapeutic setting
ectromelia virus (ECTV) = details: mouse, in vivo

| Structure (SMILES) | activation of CD8 T cell response to the viral epitope (IFN-γ production) [1] | concentration at which inhibitory effects were shown ([2]; T cell proliferation, anti-CD3) [pM] | potency relative to the AX-000 hit in inhibition of TCR-triggered T cell proliferation ([2]; more potent than AX-000) | B cell proliferation induced by TLR4 agonist LPS ([3]; LPS) | B cell proliferation induced by anti-CD40 ([3]; anti-CD40) | BCR-triggered B cell proliferation ([3]; anti-IgM stimulation, concentrations as high as 10 μM) | IC50 [4] [nM] | concentrations at which Nck recruitment to the TCR was inhibited (dose-dependent) [5] [nM] | IC50 [6] [nM] | number of genes transcriptionally downregulated [7] [genes] | body weight gain (CD-1 mice; 14 days) | adverse reactions (CD-1 mice; followed 14 days) | single oral doses without any adverse effects on body weight, organ size or lesions (Swiss albino mice) [mg/kg] | toxicity for rodents after single administration (Sprague Dawley rats; doses as high 1600 mg/kg) | single oral doses without any adverse effects on body weight, organ size or lesions (Sprague Dawley rats; rats, oral) [mg/kg] | thymocyte subset numbers [8] | neurological score reached [9] | percentage of IFN-γ responding CD8 T cells upon ex vivo B8R stimulation (ectromelia virus (ECTV)) | survival of rechallenge with lethal dose 60 days later (ectromelia virus (ECTV)) | survival rates, first challenge (ectromelia virus (ECTV)) |
| --- | --- | --- | --- | --- | --- | --- | --- | --- | --- | --- | --- | --- | --- | --- | --- | --- | --- | --- | --- | --- |
| COc1ccc2c(c1)C(c1ccc(F)cc1)=C(CN1CCCC1)CO2 [AX-024.HCl] | Neither dose of the drug significantly inhibited |  |  |  |  |  |  |  |  |  |  |  |  |  |  |  |  |  |  |  |
| COc1ccc2c(c1)C(c1ccc(F)cc1)=C(CN1CCCC1)CO2 [AX-024] |  | ≤ 1 | > 10,000 fold | not inhibited | not inhibited | not inhibited | ~1 | ≥ 1 | 1 | 1093 | all mice gained weight at a similar rate | no significant adverse reactions | ≤ 400 | not toxic | ≤ 1600 | did not have a significant impact | 0 | indistinguishable from that of the vehicle group | resisted the lethal dose, regardless of their AX-024 treatment history | did not influence survival rates |
| CCCCCCCCc1ccc(CCC(N)(CO)CO)cc1 [fingolimod, reference compound] |  |  |  |  |  |  |  |  |  |  |  |  |  |  |  |  | 0 |  |  |  |
